This is an account of results in article PMC10174618, “Monoterpenoid aryl hydrocarbon receptor allosteric antagonists protect against ultraviolet skin damage in female mice” (Nature Communications, 2023).

Test in all cases: biochemical
Holding throughout (parameters): KINOMEscan scanMAX active site-directed competition binding assay, percent of control, 468 kinases
Holding throughout (details): competition binding, percent of control

Assay [1] has as its target T1, ABL1(F317I)-nonphosphorylated (Homo sapiens, UniProt P00519, F317I).
T1 construct: nonphosphorylated
In a few lines: (§1)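 Single-concentration screen (100 μM S-carvone) in a competition binding panel of 468 human kinases (KINOMEscan scanMAX); results given as percent of control, hit cutoff 35%.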

The target of the next assay is ANKK1 (Homo sapiens, UniProt Q8NFD2). In a few lines:
as §1

In another assay the target is BRSK1 (Homo sapiens, UniProt Q8TDC3). In a few lines: as §1
In another assay the target is CIT (Homo sapiens, UniProt O14578). In a few lines:
as §1

For a further assay, the target named is CLK3 (Homo sapiens, UniProt P49761). In a few lines: as §1
The target in another assay is DDR2 (Homo sapiens, UniProt Q16832). In a few lines: as §1
The target in another assay is EPHB3 (Homo sapiens, UniProt P54753). In a few lines:
as §1

The target of the next assay is FLT3(K663Q) (Homo sapiens, UniProt P36888, K663Q). In a few lines: as §1
The target in a further assay is GSK3B (Homo sapiens, UniProt P49841). In a few lines:
as §1

A further assay deals with KIT (Homo sapiens, UniProt P10721). In a few lines:
as §1

In a further assay the target is T2, MEK1 (Homo sapiens, UniProt Q02750).
T2 construct: gene MAP2K1
In a few lines:
as §1

The next assay deals with MERTK (Homo sapiens, UniProt Q12866). In a few lines:
as §1

A further assay deals with MET(Y1235D) (Homo sapiens, UniProt P08581, Y1235D). In a few lines:
as §1

In another assay the target is T3, MINK (Homo sapiens, UniProt Q8N4C8).
T3 construct: gene MINK1
In a few lines: as §1

The next assay deals with MYLK4 (Homo sapiens, UniProt Q86YV6). In a few lines: as §1
Another assay addresses PDGFRA (Homo sapiens, UniProt P16234). In a few lines: as §1
The target in another assay is PIK3CG (Homo sapiens, UniProt P48736). In a few lines:
as §1

For another assay, the target named is PRKD2 (Homo sapiens, UniProt Q9BZL6). In a few lines: as §1
Another assay deals with STK36 (Homo sapiens, UniProt Q9NRP7). In a few lines:
as §1

For the next assay, the target named is TNIK (Homo sapiens, UniProt Q9UKE5). In a few lines: as §1
The target of the next assay is TNNI3K (Homo sapiens, UniProt Q59H18). In a few lines:
as §1

For the next assay, the target named is WNK2 (Homo sapiens, UniProt Q9Y3S1). In a few lines:
as §1

SMILES strings stand for the structures.

Chain of CIT (O14578 whole entry): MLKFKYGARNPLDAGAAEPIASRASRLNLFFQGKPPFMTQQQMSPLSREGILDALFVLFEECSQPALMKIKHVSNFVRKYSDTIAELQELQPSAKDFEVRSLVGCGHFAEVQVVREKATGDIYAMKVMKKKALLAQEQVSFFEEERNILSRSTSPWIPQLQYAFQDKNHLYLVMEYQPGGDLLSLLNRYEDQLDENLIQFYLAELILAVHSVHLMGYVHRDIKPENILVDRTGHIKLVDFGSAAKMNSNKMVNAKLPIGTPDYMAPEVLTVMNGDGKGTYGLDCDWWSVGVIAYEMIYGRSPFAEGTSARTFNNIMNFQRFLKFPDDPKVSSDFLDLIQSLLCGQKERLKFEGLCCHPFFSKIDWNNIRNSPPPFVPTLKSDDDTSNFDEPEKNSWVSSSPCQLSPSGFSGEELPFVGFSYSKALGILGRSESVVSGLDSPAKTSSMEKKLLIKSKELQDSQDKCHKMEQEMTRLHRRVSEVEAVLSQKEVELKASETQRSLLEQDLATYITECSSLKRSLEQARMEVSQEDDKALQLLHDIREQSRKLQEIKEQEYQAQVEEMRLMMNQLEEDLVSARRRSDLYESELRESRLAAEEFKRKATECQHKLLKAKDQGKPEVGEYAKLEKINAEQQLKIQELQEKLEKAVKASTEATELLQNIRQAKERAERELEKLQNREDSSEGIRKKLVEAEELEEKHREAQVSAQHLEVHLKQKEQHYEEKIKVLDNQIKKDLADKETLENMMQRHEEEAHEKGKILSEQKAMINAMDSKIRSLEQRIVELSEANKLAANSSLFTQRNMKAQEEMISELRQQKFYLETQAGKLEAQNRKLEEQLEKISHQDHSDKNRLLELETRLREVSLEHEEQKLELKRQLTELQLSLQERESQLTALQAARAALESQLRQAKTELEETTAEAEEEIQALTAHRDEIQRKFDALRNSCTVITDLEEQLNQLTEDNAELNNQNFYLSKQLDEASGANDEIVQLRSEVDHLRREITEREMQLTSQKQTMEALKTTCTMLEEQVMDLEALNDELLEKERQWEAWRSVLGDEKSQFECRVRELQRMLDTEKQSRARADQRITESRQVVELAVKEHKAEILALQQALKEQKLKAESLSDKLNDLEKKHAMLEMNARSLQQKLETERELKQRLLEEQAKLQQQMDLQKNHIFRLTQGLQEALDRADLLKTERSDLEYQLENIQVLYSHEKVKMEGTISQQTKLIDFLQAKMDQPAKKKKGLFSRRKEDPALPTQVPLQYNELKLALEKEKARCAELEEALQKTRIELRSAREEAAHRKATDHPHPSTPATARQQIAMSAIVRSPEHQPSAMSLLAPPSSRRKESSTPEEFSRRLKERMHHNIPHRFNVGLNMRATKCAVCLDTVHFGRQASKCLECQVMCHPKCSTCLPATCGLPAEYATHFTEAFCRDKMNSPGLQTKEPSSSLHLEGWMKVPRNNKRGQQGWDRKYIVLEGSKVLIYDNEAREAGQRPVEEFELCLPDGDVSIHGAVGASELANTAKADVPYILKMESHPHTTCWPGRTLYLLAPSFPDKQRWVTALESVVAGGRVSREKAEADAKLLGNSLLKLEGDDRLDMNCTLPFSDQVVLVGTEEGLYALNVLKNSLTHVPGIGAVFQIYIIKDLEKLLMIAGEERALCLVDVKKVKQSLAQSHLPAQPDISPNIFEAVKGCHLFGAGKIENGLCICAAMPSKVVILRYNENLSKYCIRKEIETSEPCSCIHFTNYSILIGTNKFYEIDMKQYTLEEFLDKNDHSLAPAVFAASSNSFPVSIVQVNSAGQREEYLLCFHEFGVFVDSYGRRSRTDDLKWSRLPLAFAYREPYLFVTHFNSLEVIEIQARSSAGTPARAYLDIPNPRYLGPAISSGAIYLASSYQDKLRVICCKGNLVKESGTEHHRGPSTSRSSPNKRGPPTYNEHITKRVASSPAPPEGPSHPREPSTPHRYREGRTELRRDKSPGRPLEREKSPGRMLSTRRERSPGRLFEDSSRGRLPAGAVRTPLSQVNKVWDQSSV
T1 sequence (P00519 whole entry F317I): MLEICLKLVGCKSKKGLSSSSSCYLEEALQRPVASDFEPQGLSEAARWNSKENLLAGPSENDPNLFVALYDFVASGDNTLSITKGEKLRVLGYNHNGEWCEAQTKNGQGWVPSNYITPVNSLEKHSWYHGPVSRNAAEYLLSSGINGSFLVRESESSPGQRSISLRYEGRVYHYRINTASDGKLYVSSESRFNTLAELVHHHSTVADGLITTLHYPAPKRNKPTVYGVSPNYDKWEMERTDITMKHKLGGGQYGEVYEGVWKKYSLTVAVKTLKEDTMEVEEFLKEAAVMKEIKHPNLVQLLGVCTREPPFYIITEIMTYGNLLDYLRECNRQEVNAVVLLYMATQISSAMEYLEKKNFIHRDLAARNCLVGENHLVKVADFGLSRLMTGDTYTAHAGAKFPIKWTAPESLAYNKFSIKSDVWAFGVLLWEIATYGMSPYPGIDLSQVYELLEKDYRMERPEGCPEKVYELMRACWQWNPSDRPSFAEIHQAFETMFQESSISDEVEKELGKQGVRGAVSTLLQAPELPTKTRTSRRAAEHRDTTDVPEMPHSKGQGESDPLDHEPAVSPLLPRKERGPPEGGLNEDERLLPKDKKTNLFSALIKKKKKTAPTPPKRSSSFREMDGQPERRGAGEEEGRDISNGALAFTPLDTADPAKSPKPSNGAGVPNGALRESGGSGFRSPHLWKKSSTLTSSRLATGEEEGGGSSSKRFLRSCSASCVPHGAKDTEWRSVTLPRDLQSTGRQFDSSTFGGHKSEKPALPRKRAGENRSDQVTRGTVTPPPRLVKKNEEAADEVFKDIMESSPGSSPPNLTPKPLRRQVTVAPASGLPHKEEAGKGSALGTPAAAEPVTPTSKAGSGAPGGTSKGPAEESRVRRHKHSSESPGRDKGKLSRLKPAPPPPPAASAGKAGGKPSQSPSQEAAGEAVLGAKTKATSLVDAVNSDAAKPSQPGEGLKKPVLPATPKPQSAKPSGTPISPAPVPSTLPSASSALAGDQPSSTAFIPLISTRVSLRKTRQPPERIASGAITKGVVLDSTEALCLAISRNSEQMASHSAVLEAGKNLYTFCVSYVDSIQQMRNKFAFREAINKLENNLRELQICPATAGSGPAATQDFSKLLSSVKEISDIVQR
Chain of DDR2 (Q16832 whole entry): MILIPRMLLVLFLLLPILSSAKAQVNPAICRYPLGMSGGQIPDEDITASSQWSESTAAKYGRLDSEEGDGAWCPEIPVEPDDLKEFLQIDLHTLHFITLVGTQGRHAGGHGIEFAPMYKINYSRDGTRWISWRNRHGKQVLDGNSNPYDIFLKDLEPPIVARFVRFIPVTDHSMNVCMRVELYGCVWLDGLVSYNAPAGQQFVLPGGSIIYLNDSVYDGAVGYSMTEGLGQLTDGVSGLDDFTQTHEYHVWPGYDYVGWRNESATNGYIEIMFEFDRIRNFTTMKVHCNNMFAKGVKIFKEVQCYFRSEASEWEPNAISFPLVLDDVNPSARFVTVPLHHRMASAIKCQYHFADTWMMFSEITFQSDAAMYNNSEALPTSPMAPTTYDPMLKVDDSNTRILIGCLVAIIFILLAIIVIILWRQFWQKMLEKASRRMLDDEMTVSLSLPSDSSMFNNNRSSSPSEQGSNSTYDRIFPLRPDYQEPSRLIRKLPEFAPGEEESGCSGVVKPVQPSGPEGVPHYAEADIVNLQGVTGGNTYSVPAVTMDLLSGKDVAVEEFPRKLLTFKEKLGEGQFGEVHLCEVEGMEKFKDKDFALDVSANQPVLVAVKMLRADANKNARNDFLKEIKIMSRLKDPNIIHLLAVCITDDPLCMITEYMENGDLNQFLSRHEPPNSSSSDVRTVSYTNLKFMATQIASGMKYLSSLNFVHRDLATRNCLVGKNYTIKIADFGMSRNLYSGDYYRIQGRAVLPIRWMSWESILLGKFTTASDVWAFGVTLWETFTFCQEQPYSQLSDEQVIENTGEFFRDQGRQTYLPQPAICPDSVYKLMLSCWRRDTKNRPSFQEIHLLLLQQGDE
T2 sequence (Q02750 whole entry): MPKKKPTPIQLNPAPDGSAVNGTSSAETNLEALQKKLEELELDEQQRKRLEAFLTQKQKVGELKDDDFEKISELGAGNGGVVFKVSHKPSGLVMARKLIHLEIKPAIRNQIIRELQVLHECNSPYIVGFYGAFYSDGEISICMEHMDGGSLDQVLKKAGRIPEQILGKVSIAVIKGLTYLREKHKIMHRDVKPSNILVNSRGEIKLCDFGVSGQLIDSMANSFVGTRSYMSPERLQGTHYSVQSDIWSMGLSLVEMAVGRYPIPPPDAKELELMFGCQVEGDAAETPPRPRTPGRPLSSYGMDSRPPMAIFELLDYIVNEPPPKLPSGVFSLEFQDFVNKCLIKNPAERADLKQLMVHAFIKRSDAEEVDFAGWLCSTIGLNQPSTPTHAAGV
Chain of GSK3B (P49841 whole entry): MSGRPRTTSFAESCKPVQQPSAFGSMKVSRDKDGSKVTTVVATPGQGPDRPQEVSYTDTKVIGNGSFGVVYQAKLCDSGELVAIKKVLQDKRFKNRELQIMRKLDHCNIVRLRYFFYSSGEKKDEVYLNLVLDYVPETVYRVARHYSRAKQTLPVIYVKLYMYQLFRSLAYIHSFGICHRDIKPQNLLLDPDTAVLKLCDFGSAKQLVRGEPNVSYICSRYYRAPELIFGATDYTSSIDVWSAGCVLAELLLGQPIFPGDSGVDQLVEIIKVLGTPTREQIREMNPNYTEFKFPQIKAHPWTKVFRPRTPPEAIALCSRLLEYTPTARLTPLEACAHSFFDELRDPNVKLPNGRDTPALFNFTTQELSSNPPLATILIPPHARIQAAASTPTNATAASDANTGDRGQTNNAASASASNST

As for `C=C(C)[C@H]1CC=C(C)C(=O)C1` [S-carvone], the remaining binding at 100 µM in assay [1] worked out at 64%; on ANKK1 it was 91%; on BRSK1, 100%; at CIT it was 81%; at CLK3 it was 99%; on DDR2, 88%. The remaining binding at 100 µM at EPHB3 came out at 62%; at FLT3(K663Q), 95%; on GSK3B it was 82%; on KIT, 82%; at MEK1, 71%; at MERTK, 90%. Moreover, the remaining binding at 100 µM at MET(Y1235D) is 87%; at MINK, 72%; on MYLK4 it was 93%; on PDGFRA, 80%; on PIK3CG it was 69%; at PRKD2 it was 100%. For the same compound, the remaining binding at 100 µM at STK36 came out at 69%; on TNIK it was 84%; on TNNI3K it was 93%; at WNK2, 77%.
